# In the Kinase Knowledgebase extract (Sharma et al. 2016):
# Molecular target: PIK3CG (human) (UniProt P48736)
# Assay: Assessment of PIK3CG Kinase Activity
# PIK3CG (human), sequence (P48736 whole entry, looked up): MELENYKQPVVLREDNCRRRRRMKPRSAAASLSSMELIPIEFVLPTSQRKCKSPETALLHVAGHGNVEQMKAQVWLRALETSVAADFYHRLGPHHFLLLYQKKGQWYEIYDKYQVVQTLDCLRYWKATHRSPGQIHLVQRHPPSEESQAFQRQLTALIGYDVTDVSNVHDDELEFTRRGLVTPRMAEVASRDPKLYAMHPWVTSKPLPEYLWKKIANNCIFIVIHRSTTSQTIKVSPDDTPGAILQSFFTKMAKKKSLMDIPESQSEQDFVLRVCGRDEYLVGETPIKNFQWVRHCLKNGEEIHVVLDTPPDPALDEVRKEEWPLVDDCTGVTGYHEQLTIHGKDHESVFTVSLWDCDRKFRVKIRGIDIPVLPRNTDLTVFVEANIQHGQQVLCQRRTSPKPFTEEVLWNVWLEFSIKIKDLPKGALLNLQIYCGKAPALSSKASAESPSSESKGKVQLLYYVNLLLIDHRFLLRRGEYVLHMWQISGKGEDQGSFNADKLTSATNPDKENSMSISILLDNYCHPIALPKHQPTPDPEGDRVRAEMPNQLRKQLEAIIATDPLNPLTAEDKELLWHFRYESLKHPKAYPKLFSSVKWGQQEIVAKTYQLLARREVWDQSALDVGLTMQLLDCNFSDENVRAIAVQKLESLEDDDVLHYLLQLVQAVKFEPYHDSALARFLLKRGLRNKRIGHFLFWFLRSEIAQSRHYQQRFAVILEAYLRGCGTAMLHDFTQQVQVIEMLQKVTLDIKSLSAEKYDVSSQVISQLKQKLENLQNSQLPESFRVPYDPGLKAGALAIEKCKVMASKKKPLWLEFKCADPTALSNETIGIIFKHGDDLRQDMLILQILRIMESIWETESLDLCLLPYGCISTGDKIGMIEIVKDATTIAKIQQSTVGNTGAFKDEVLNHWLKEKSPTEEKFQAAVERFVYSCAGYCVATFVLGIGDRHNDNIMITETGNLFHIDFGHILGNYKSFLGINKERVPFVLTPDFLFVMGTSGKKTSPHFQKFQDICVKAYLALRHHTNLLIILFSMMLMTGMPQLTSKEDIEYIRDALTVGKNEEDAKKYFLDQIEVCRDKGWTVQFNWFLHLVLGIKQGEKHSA
row,SMILES,IC50
1,CC(C)N1CC(=O)N(C)c2cnc(Nc3cc(NS(C)(=O)=O)cc(C(=O)NC4CCN(C)C4)c3)nc21 (stereo unspecified),< 800 nM
2,Cc1ccccc1CC(=O)Nc1cc(Nc2ncc3c(n2)N(C(C)C)CC(=O)N3C)cc(S(C)(=O)=O)c1,< 800 nM
3,CC(C)N1CC(=O)N(C)c2cnc(Nc3cc(C#N)cc(S(C)(=O)=O)c3)nc21,< 800 nM
4,CC(C)N1CC(=O)N(C)c2cnc(Nc3cc(NC(=O)C(C)(C)c4ccccc4)cc(S(C)(=O)=O)c3)nc21,< 800 nM
5,CC(C)N1CC(=O)N(C)c2cnc(Nc3cc(NC(=O)Cc4cccnc4)cc(S(C)(=O)=O)c3)nc21,< 800 nM
6,CC(C)N1CC(=O)N(C)c2cnc(Nc3cc(N(C)C(=O)Cc4ccsc4)cc(S(C)(=O)=O)c3)nc21,< 800 nM
7,Cc1cc(CC(=O)N(C)c2cc(Nc3ncc4c(n3)N(C(C)C)CC(=O)N4C)cc(S(C)(=O)=O)c2)on1,< 800 nM
8,CC(C)N1CC(=O)N(C)c2cnc(Nc3cc(NS(C)(=O)=O)cc(C(F)(F)F)c3)nc21,< 800 nM
9,CC(C)N1CC(=O)N(C)c2cnc(Nc3cc(NC(=O)NCC4CC4)cc(S(C)(=O)=O)c3)nc21,< 800 nM
10,CC(C)N1CC(=O)N(C)c2cnc(Nc3cc(NS(C)(=O)=O)cc(C(=O)NCCN(C)C)c3)nc21,< 800 nM
11,CCc1cnc(CCNC(=O)Nc2cc(Nc3ncc4c(n3)N(C(C)C)CC(=O)N4C)cc(S(C)(=O)=O)c2)o1,< 800 nM
12,CC(C)N1CC(=O)N(C)c2cnc(Nc3cc(NC(=O)NCc4cc(C5CC5)[nH]n4)cc(S(C)(=O)=O)c3)nc21,< 800 nM
13,CC(C)N1CC(=O)N(C)c2cnc(Nc3cc(NC(=O)NC[C@@H]4CCCN4)cc(S(C)(=O)=O)c3)nc21,< 800 nM
14,CCN1CCCC1CNC(=O)c1cc(Nc2ncc3c(n2)N(C(C)C)CC(=O)N3C)cc(S(C)(=O)=O)c1 (stereo unspecified),< 800 nM
15,CC(C)N1CC(=O)N(C)c2cnc(Nc3cc(NC(=O)Cc4cc5ccccc5n4C)cc(S(C)(=O)=O)c3)nc21,< 800 nM
16,CC(C)N1CC(=O)N(C)c2cnc(Nc3cc(NC(=O)NC[C@@H]4CCNC4)cc(S(C)(=O)=O)c3)nc21,< 800 nM
17,CC(C)N1CC(=O)N(C)c2cnc(Nc3cc(NC(=O)Cc4ccccc4)cc(S(C)(=O)=O)c3)nc21,< 800 nM
18,Cc1[nH]c2ccccc2c1CC(=O)Nc1cc(Nc2ncc3c(n2)N(C(C)C)CC(=O)N3C)cc(S(C)(=O)=O)c1,< 800 nM
19,CC(C)N1CC(=O)N(C)c2cnc(Nc3cc(N4CCNC4=O)cc(S(C)(=O)=O)c3)nc21,< 800 nM
20,CC(C)N1CC(=O)N(C)c2cnc(Nc3cc(NC(=O)Cc4cccc(Cl)c4)cc(S(C)(=O)=O)c3)nc21,< 800 nM

row,SMILES,IC50
1,CCC(C)Nc1cc(Nc2ncc3c(n2)N(C(C)C)CC(=O)N3C)cc(S(C)(=O)=O)c1 (stereo unspecified),< 800 nM
2,CNC(=O)c1cc(Nc2ncc3c(n2)N(C(C)C)CC(=O)N3C)cc(C(F)(F)F)c1,< 800 nM
3,CC(C)N1CC(=O)N(C)c2cnc(Nc3cc(NC(=O)[C@H]4CCNC4)cc(S(C)(=O)=O)c3)nc21,< 800 nM
4,CC(C)N1CC(=O)N(C)c2cnc(Nc3cc(NC(=O)[C@@H]4CCCN(C5CCCC5)C4)cc(S(C)(=O)=O)c3)nc21,< 800 nM
5,CC(C)N1CC(=O)N(C)c2cnc(Nc3cc(N(C)C(=O)Cc4cccs4)cc(S(C)(=O)=O)c3)nc21,< 800 nM
6,CC(C)N1CC(=O)N(C)c2cnc(Nc3cc(NC(=O)NC[C@@H]4CCCN4C4CCCC4)cc(S(C)(=O)=O)c3)nc21,< 800 nM
7,CC(C)N1CC(=O)N(C)c2cnc(Nc3cc(NC(=O)c4ccsc4)cc(S(C)(=O)=O)c3)nc21,< 800 nM
8,CC(C)N1CC(=O)N(C)c2cnc(Nc3cc(NC(=O)[C@@H]4CCCN4C4CCCC4)cc(S(C)(=O)=O)c3)nc21,< 800 nM
9,CC(C)N1CC(=O)N(C)c2cnc(Nc3cc(NC(=O)C[C@H]4CCNC4)cc(S(C)(=O)=O)c3)nc21,< 800 nM
10,CC(C)N1CC(=O)N(C)c2cnc(Nc3cc(NC(=O)C[C@@H]4CCN(C5CCCC5)C4)cc(S(C)(=O)=O)c3)nc21,< 800 nM
11,CC(C)N1CC(=O)N(C)c2cnc(Nc3cc(NC(=O)N[C@H]4CCN(Cc5ccccc5)C4)cc(S(C)(=O)=O)c3)nc21,< 800 nM
12,CC(C)N1CC(=O)N(C)c2cnc(Nc3cc(CO)cc(S(C)(=O)=O)c3)nc21,< 800 nM
13,CC(C)N1CC(=O)N(C)c2cnc(Nc3cc(C(=O)NC4CCN(C)C4)cc(S(C)(=O)=O)c3)nc21 (stereo unspecified),< 800 nM
14,CC(C)N1CC(=O)N(C)c2cnc(Nc3cc(NC(=O)Cc4ccc(Cl)nc4)cc(S(C)(=O)=O)c3)nc21,< 800 nM
15,CC(C)N1CC(=O)N(C)c2cnc(Nc3cc(NC(=O)N[C@@H]4CCN(C5CCOCC5)C4)cc(S(C)(=O)=O)c3)nc21,< 800 nM
16,CC(C)N1CC(=O)N(C)c2cnc(Nc3cc(S(C)(=O)=O)cc(S(C)(=O)=O)c3)nc21,< 800 nM
17,CC(C)N1CC(=O)N(C)c2cnc(Nc3cc(NC(=O)N[C@@H]4CCN(C5CCCC5)C4)cc(NS(C)(=O)=O)c3)nc21,< 800 nM
18,CC(C)N1CC(=O)N(C)c2cnc(Nc3cc(NC(=O)Cc4cc5cc(F)ccc5[nH]4)cc(S(C)(=O)=O)c3)nc21,< 800 nM
19,CC(C)N1CC(=O)N(C)c2cnc(Nc3cc(NC(=O)NCc4ccccc4)cc(S(C)(=O)=O)c3)nc21,< 800 nM

# The remaining lines, values ahead:
row,IC50,SMILES
1,< 800 nM,CC(C)N1CC(=O)N(C)c2cnc(Nc3cc(NS(=O)(=O)c4ccc(F)cc4)cc(S(C)(=O)=O)c3)nc21
2,< 800 nM,CC(C)N1CC(=O)N(C)c2cnc(Nc3cc(NC(=O)CC4CCCC4)cc(S(C)(=O)=O)c3)nc21
3,< 800 nM,CC(C)N1CC(=O)N(C)c2cnc(Nc3cc(NC(=O)[C@@H]4CCCNC4)cc(S(C)(=O)=O)c3)nc21
4,< 800 nM,CC(C)N1CC(=O)N(C)c2cnc(Nc3cc(NS(C)(=O)=O)cc(C(=O)NCCc4ccccn4)c3)nc21
5,< 800 nM,CC(C)N1CC(=O)N(C)c2cnc(Nc3cc(NS(=O)(=O)CC4CCCCC4)cc(S(C)(=O)=O)c3)nc21
6,< 800 nM,CC(C)N1CC(=O)N(C)c2cnc(Nc3cc(-c4cc(C5CC5)[nH]n4)cc(S(C)(=O)=O)c3)nc21
7,< 800 nM,CN1C(=O)CN(c2ccccc2)c2nc(Nc3cccc(S(=O)(=O)CCN4CCCCC4)c3)ncc21
8,< 800 nM,CC(C)N1CC(=O)N(C)c2cnc(Nc3cc(N(C)C(=O)Cc4cccc(Cl)c4)cc(S(C)(=O)=O)c3)nc21
9,< 800 nM,CC(C)N1CC(=O)N(C)c2cnc(Nc3cc(NC(=O)Cc4nnn[nH]4)cc(S(C)(=O)=O)c3)nc21
10,< 800 nM,COc1cc(Nc2ncc3c(n2)N(C(C)C)CC(=O)N3C)cc(S(C)(=O)=O)c1
11,< 800 nM,CC(C)NCCS(=O)(=O)c1cccc(Nc2ncc3c(n2)N(C(C)C)CC(=O)N3C)c1
12,< 800 nM,CC(C)N1CC(=O)N(C)c2cnc(Nc3cccc(S(=O)(=O)CCN(C)C)c3)nc21
13,< 800 nM,CC(C)N1CC(=O)N(C)c2cnc(Nc3cc(NC(=O)N[C@@H]4CCNC4)cc(S(C)(=O)=O)c3)nc21
14,< 800 nM,CC(C)N1CC(=O)N(C)c2cnc(Nc3cc(NC(=O)NCCN4CCNC4=O)cc(S(C)(=O)=O)c3)nc21
15,< 800 nM,CC(C)N1CC(=O)N(C)c2cnc(Nc3cc(NC4CCC(N)CC4)cc(S(C)(=O)=O)c3)nc21 (stereo unspecified)
16,< 800 nM,CC(C)N1CC(=O)N(C)c2cnc(Nc3cc(NC(=O)NC[C@H]4CCCN4)cc(S(C)(=O)=O)c3)nc21
17,< 800 nM,CC(C)N1CC(=O)N(C)c2cnc(Nc3cc(NC(=O)[C@H](C)c4ccccc4)cc(S(C)(=O)=O)c3)nc21
18,< 800 nM,CC(C)N1CC(=O)N(C)c2cnc(Nc3cc(NC(=O)NC4CCN(C)CC4)cc(S(C)(=O)=O)c3)nc21
19,< 800 nM,CC(C)N1CC(=O)N(C)c2cnc(Nc3cc(C(=O)N(C)Cc4ccncc4)cc(S(C)(=O)=O)c3)nc21
20,< 800 nM,CC(C)N1CC(=O)N(C)c2cnc(Nc3cc(NC(=O)C4CCCCN4)cc(S(C)(=O)=O)c3)nc21 (stereo unspecified)
21,< 800 nM,CC(C)N1CC(=O)N(C)c2cnc(Nc3cc(NC(=O)N4CCOCC4)cc(S(C)(=O)=O)c3)nc21

row,IC50,SMILES
1,< 800 nM,CC(C)N1CC(=O)N(C)c2cnc(Nc3cc(Cl)cc(S(C)(=O)=O)c3)nc21
2,< 800 nM,CC(C)N1CC(=O)N(C)c2cnc(Nc3cc(NC(=O)[C@H]4CCCN(C5CCCC5)C4)cc(S(C)(=O)=O)c3)nc21
3,< 800 nM,CC(C)N1CC(=O)N(C)c2cnc(Nc3cc(C(F)(F)F)cc(S(C)(=O)=O)c3)nc21
4,< 800 nM,CC(C)N1CC(=O)N(C)c2cnc(Nc3cc(NC(=O)NCCc4cccnc4)cc(S(C)(=O)=O)c3)nc21
5,< 800 nM,CC(C)N1CC(=O)N(C)c2cnc(Nc3cc(NC(=O)[C@H](C)C4CCCCC4)cc(S(C)(=O)=O)c3)nc21
6,< 800 nM,CC(C)N1CC(=O)N(C)c2cnc(Nc3cc(NS(=O)(=O)c4ccc(N5CCOCC5)nc4)cc(S(N)(=O)=O)c3)nc21
7,< 800 nM,CC(C)N1CC(=O)N(C)c2cnc(Nc3cc(NS(C)(=O)=O)cc(C(=O)NCCN4CCNC4=O)c3)nc21
8,< 800 nM,CC(C)N1CC(=O)N(C)c2cnc(Nc3cc(NC(=O)[C@@H]4CCCN4)cc(S(C)(=O)=O)c3)nc21
9,< 800 nM,CC(C)N1CC(=O)N(C)c2cnc(Nc3cc(NS(C)(=O)=O)cc(C(=O)NCCCCN(C)C)c3)nc21
10,< 800 nM,CC(C)N1CC(=O)N(C)c2cnc(Nc3cc(NC(=O)N[C@H]4CCN(C5CCOCC5)C4)cc(S(C)(=O)=O)c3)nc21
11,< 800 nM,CC(C)N1CC(=O)N(C)c2cnc(Nc3cc(NC(=O)NC[C@@H]4CCCO4)cc(S(C)(=O)=O)c3)nc21
12,< 800 nM,CC(C)N1CC(=O)N(C)c2cnc(Nc3cc(NC(=O)N[C@H]4CCNC4)cc(S(C)(=O)=O)c3)nc21
13,< 800 nM,CC(C)N1CC(=O)N(C)c2cnc(Nc3cc(CS(C)(=O)=O)cc(C(F)(F)F)c3)nc21
14,< 800 nM,CC(C)N1CC(=O)N(C)c2cnc(Nc3cc(NC(=O)c4cccc(C#N)c4)cc(S(C)(=O)=O)c3)nc21
15,< 800 nM,CNS(=O)(=O)c1cccc(Nc2ncc3c(n2)N(C(C)C)CC(=O)N3C)c1
16,< 800 nM,CC(C)N1CC(=O)N(C)c2cnc(Nc3cc(NC(=O)Cc4cccs4)cc(S(C)(=O)=O)c3)nc21
17,< 800 nM,CC(C)N1CC(=O)N(C)c2cnc(Nc3cc(N(C)C(=O)N[C@H]4CCN(Cc5ccccc5)C4)cc(S(C)(=O)=O)c3)nc21
18,< 800 nM,CC(C)N1CC(=O)N(C)c2cnc(Nc3cc(N(C)C(=O)NCc4ccccc4)cc(S(C)(=O)=O)c3)nc21
19,< 800 nM,CC(C)N1CC(=O)N(C)c2cnc(Nc3cc(NC(N)=O)cc(S(C)(=O)=O)c3)nc21
20,< 800 nM,CC(C)N1CC(=O)N(C)c2cnc(Nc3cc(NC(=O)N(C)Cc4ccncc4)cc(S(C)(=O)=O)c3)nc21
21,< 800 nM,CC(C)N1CC(=O)N(C)c2cnc(Nc3cc(Br)cc(S(C)(=O)=O)c3)nc21
